Consider two molecules from patent US20100179209A1, “Pactimibe medicaments for preventing/treating a disease due to sebaceous gland dysfunction in humans or animals” (GALDERMA RESEARCH & DEVELOPMENT, priority 2007, published 2010).

Data set [1] concerns ACAT/SOAT enzyme. The data set is described as follows: Measurement of ACAT/SOAT activity (NBD-cholesterol fluorescence assay in HepG2 cells). The note with it: NBD-cholesterol 1 μg/ml, incubation 6 h at 37° C., read-out: inhibition of cholesterol ester synthesis, IC50. The data set is classed as cell-based. From the text:
Measurement of ACAT/SOAT Activity:
The objective of this test is to visualize the activity of the ACAT/SOAT enzyme on the synthesis of cholesterol esters.
The test is based on the following publication: “Identification of ACAT1- and ACAT2-specific inhibitors using a novel, cell based fluorescence assay: individual ACAT uniqueness”, J. Lipid Res., (2004) vol. 45, pages 378-386.
The principle of this test is based on the use of NBD-cholesterol, which is a cholesterol analogue of which the fluorescence is dependent on its environment. When said analogue is in a polar environment, it is weakly fluorescent, whereas in a non-polar environment, it is strongly fluorescent. Free NBD-cholesterol is localized in the cell membranes and is weakly fluorescent in this polar environment. When NBD-cholesterol is esterified by ACAT, the NBD-cholesterol ester is localized in non-polar lipid droplets and is therefore strongly fluorescent.
HepG2 cells are incubated in the presence of NBD-cholesterol (1 μg/ml) and of the test product in transparent-bottomed black 96-well plates at a rate of 30 000 cells per well. […] After the addition of 50 μl of lysis buffer (10 mM NaPO4, 1% Igepal), the plates are shaken for 5 min and read by fluorescence (excitation 490 nm, emission 540 nm) on the Fusion instrument (Perkin Elmer).

The test system of data set [2] is sebaceous glands. As to the kind of experiment: Study of the properties of pactimibe: sebum production by the sebaceous glands.
Data set [3] is described as follows: Study of the properties of pactimibe: toxicity.
The subject of data set [4] is sebum production. The following applies: administration of isotretinoin, current treatment; cited from earlier work.

In the case of `CCCCCCCCN1CCc2c(C)c(CC(=O)O)c(C)c(NC(=O)C(C)(C)C)c21` [pactimibe, N-(1-octyl-5-carboxymethyl-4,6-dimethylindolin-7-yl)-2,2-dimethylpropanamide], the IC50 (as a rule, the concentration that inhibits the measured activity by half) in data set [1] is 50 nM. Besides, in data set [2], the “sebum production by the sebaceous glands” value was “reduce sebum production”. Besides, in data set [3], the toxicity entry is “not toxic”.

As to `CC1=C(/C=C/C(C)=C/C=C/C(C)=C\C(=O)O)C(C)(C)CCC1` [isotretinoin], in data set [4], the “decrease of sebum production” value is roughly 90% and the side effects result is listed as “considerable side effects”.
